What all share (assay): In Vitro Assay
In assay [1] the target is T1, Receptor-interacting serine/threonine-protein kinase 1 (Homo sapiens, UniProt Q13546).
T1 sequence (Q13546 whole entry): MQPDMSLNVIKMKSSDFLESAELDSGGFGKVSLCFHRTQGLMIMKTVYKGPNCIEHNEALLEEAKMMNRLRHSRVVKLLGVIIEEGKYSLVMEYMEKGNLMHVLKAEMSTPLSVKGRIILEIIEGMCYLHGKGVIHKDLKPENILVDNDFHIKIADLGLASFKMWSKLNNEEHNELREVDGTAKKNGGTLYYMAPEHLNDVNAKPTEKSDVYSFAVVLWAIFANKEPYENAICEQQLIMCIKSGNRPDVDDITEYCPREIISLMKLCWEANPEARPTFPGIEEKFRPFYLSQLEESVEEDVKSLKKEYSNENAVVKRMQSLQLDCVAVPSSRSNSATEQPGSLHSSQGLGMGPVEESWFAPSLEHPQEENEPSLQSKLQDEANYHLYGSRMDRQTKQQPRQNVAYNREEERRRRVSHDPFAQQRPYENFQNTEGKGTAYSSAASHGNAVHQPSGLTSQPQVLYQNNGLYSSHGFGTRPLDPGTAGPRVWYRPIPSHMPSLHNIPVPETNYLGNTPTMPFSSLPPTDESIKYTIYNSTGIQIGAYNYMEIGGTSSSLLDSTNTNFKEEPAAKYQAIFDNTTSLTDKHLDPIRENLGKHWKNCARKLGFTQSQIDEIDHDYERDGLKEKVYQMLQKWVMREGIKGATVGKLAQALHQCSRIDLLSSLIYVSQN
As for the experimental part:
(§1) Kinase assays. For most assays, kinase-tagged T7 phage strains were grown in parallel in 24-well blocks in an E. coli host derived from the BL21 strain. E. coli were grown to log-phase and infected with T7 phage from a frozen stock (multiplicity of infection=0.4) and incubated with shaking at 32° C. until lysis (90-150 minutes).

Assay [2] deals with T2, Mixed lineage kinase domain-like protein (Homo sapiens, UniProt Q8NB16).
T2 sequence (Q8NB16 whole entry): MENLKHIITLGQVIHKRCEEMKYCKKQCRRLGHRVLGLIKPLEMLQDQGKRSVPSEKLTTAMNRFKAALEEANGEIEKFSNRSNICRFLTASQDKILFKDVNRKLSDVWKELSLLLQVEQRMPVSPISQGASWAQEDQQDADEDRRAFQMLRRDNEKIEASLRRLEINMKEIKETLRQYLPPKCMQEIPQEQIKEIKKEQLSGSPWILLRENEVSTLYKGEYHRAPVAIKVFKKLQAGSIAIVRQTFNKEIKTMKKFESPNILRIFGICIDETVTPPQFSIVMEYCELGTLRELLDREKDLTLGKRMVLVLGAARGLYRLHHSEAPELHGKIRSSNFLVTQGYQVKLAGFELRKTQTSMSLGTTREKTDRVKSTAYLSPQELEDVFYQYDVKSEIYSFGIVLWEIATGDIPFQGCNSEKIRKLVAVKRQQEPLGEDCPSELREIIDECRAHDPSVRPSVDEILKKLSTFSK
As for the experimental part:
as §1

Assay [3] has as its target Receptor-interacting serine/threonine-protein kinase 3 (Homo sapiens, UniProt Q9Y572). Here is the method:
as §1

Receptor-interacting serine/threonine-protein kinase 3, sequence (Q9Y572 whole entry): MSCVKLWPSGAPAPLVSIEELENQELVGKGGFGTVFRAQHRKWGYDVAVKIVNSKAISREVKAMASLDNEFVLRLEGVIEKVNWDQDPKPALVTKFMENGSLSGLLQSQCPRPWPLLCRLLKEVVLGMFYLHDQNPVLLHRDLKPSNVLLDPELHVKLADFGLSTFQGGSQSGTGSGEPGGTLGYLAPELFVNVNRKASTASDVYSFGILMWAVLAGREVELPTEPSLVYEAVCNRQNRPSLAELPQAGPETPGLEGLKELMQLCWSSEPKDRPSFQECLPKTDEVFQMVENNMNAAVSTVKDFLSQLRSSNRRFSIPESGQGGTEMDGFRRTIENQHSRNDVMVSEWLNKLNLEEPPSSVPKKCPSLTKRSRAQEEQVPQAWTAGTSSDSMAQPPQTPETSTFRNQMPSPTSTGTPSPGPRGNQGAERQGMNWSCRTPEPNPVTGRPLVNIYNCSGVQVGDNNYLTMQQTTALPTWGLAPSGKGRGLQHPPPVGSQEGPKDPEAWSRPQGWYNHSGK

`NC(=O)c1c(-c2ccc(NS(=O)(=O)CC(F)(F)F)c(OCc3ccc(F)cc3)c2)n[nH]c1Nc1cccc(C(F)(F)F)n1`: the Kd in assay [1] was > 30 µM; in assay [2], “in the range around 0.505 µM”; in assay [3], > 30 µM.
Regarding `NC(=O)c1c(-c2ccc(NS(=O)(=O)Cc3ccc(Cl)cc3)cc2)n[nH]c1Nc1cccc(C(F)(F)F)n1` [US20250074891, Compound 60], the Kd in assay [1] and in assay [3] was > 30 µM throughout.
Turning to `CCS(=O)(=O)Nc1ccc(-c2n[nH]c(Nc3cccc(C(F)F)n3)c2C(N)=O)cc1` [US20250074891, Compound 92], the Kd is > 30 µM in assay [1] and < 0.01 µM in assay [2].
For the compound `CCOc1nccc(Nc2[nH]nc(-c3ccc(NS(=O)(=O)CC)cc3)c2C(N)=O)n1` [US20250074891, Compound 98], the Kd was > 30 µM in assay [1], < 0.01 µM in assay [2] and > 30 µM in assay [3].
As for `CCS(=O)(=O)Nc1ccc(-c2n[nH]c(Nc3cnccn3)c2C(N)=O)cc1OC1CCCc2cc(F)ccc21` (stereo not given) [US20250074891, Compound 224], the Kd was > 30 µM in assay [1], < 0.01 µM in assay [2] and > 30 µM in assay [3].
On to `C[C@H](Oc1cc(-c2n[nH]c(Nc3cc(C4(C)CCOCC4)on3)c2C(N)=O)ccc1NS(=O)(=O)C(F)F)c1ccc(F)cc1` [US20250074891, Compound 301], for which the dissociation constant (Kd) in assay [1] was > 30 µM; in assay [2] it was < 0.01 µM; in assay [3], > 30 µM.
For the compound `C[C@H](Oc1cc(-c2n[nH]c(Nc3cc(C4CC4)on3)c2C(N)=O)ccc1NS(=O)(=O)C(F)F)c1ccc(F)cc1` [US20250074891, Compound 310], the figures for the Kd in assay [1], in assay [2] and in assay [3] were > 30 µM, < 0.01 µM and > 30 µM, respectively.
As to `Cc1ncsc1-c1ccc(CNC(=O)[C@@H]2C[C@@H](O)CN2C(=O)[C@@H](NC(=O)CCCCOc2ccc(Nc3[nH]nc(-c4ccc(NS(=O)(=O)C(F)F)c(OCc5ccc(F)cc5)c4)c3C(N)=O)nc2)C(C)(C)C)cc1` [US20250074891, Compound 1025], the Kd in assay [2] is < 0.01 µM.

By Kd is commonly meant the free concentration of one partner at which half of the binding sites on the other are occupied at equilibrium, for simple one-to-one binding. Read a low Kd as tighter binding.

These data come from BindingDB's records for patent US20250074891 (Anaxis Pharma, 2025).
